Results as given in ChEMBL document CHEMBL1201862, “PubChem BioAssay data set” (2004).
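Compound exposure: 48 hours, 5 concentrations, 96-well plates. GI50: concentration for 50% inhibition of growth.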 Active and inactive are the calls of the source. Rule as the data show it: active = GI50 up to about 1.1 µM and inactive = higher.

Experiments:
Test in all cases: growth of human tumour cells (NCI), 48 h
[1] = tested on: DLD-1
[2] = tested on: SW-620
[3] = tested on: 786-0
[4] = tested on: SF-539
[5] = tested on: LXFL 529
[6] = tested on: NCI-H460
[7] = tested on: MDA-N
[8] = tested on: NCI-H226
[9] = tested on: DMS-114
[10] = tested on: XF498
[11] = tested on: MCF7
[12] = tested on: NCI-H23
[13] = tested on: RPMI-8226
[14] = tested on: SR
[15] = tested on: OVCAR-3
[16] = tested on: HT-29
[17] = tested on: UACC-62
[18] = tested on: M19-MEL
[19] = tested on: OVCAR-8
[20] = tested on: M14
[21] = tested on: SNB-78
[22] = tested on: DMS-273
[23] = tested on: CCRF-CEM
[24] = tested on: KM-20L2
[25] = tested on: NCI-H522
[26] = tested on: SK-MEL-28
[27] = tested on: MOLT-4
[28] = tested on: Malme-3M
[29] = tested on: HCT-116
[30] = tested on: HL-60
[31] = tested on: HOP-18
[32] = tested on: KM12
[33] = tested on: A549
[34] = tested on: UACC-257
[35] = tested on: EKVX
[36] = tested on: TK-10
[37] = tested on: OVCAR-4
[38] = tested on: CAKI-1
[39] = tested on: UO-31
[40] = tested on: HCC 2998
[41] = tested on: SK-MEL-2
[42] = tested on: ACHN
[43] = tested on: COLO 205
[44] = tested on: SK-MEL-5
[45] = tested on: SF-268
[46] = tested on: SN12C
[47] = tested on: HCT-15
[48] = tested on: RXF 393
[49] = tested on: IGROV-1
[50] = tested on: OVCAR-5
[51] = tested on: A498
[52] = tested on: U-251
[53] = tested on: SF-295
[54] = tested on: K562
[55] = tested on: SNB-75
[56] = tested on: SK-OV-3
[57] = tested on: HOP-62
[58] = tested on: HOP-92
[59] = tested on: SNB-19
[60] = tested on: LOX IMVI

Measured: GI50

COc1ccc(/C=C\c2cc(OC)c(OC)c(OC)c2)cc1OC(=O)C(N)CCC(=O)O (stereo not given)
active: [1] < 1e-05 µM | [2] 0.00015 µM | [3] 0.000764 µM | [4] 8.22e-05 µM | [5] < 1e-05 µM | [6] 0.000133 µM | [7] 50 pM | [8] 0.000632 µM | [9] < 1e-05 µM | [10] < 1e-05 µM | [11] 0.00229 µM | [12] 0.000114 µM | [13] 0.0001 µM | [14] 0.000208 µM | [15] 0.00011 µM | [17] 8.02e-05 µM | [18] < 1e-05 µM | [19] 0.000143 µM | [20] 0.00016 µM | [21] < 1e-05 µM | [22] < 1e-05 µM | [23] 0.000117 µM | [24] 0.00252 µM | [25] 8.51e-05 µM | [26] 0.000188 µM | [27] 0.000135 µM | [28] 0.000105 µM | [29] 0.00015 µM | [30] 7.5e-05 µM | [31] 0.0764 µM | [32] 0.000131 µM | [33] 0.000802 µM | [34] 0.000465 µM
inactive: [16] 1.43 µM

CC(=O)OC(C)(C)/C=C/C(=O)[C@](C)(O)[C@H]1[C@H](O)C[C@@]2(C)[C@@H]3CC=C4[C@@H](C[C@H](O)C(=O)C4(C)C)[C@]3(CO)C(=O)C[C@]12C [CUCURBITACIN A]
inactive: [27] 3.1 µM
active: [35] 0.364 µM | [1] 0.337 µM | [36] 0.179 µM | [37] 0.348 µM | [38] 0.243 µM | [2] 0.367 µM | [3] 0.316 µM | [4] 0.285 µM | [39] 0.317 µM | [5] 0.34 µM | [6] 0.184 µM | [8] 0.0762 µM | [9] 0.483 µM | [40] 0.35 µM | [10] 0.374 µM | [41] 0.1 µM | [12] 0.536 µM | [13] 0.0942 µM | [42] 0.262 µM | [14] 0.65 µM | [15] 0.446 µM | [16] 0.308 µM | [17] 0.543 µM | [18] 0.451 µM | [43] 0.318 µM | [44] 0.316 µM | [19] 0.615 µM | [45] 0.168 µM | [20] 0.39 µM | [21] 0.33 µM | [46] 0.448 µM | [48] 0.208 µM | [22] 0.149 µM | [23] 0.286 µM | [49] 0.634 µM | [24] 0.303 µM | [25] 0.288 µM | [26] 0.132 µM | [50] 0.955 µM | [28] 0.344 µM | [29] 0.437 µM | [51] 0.231 µM | [52] 0.233 µM | [53] 0.314 µM | [54] 0.445 µM | [55] 0.131 µM | [30] 0.335 µM | [31] 0.148 µM | [56] 0.391 µM | [57] 0.26 µM | [32] 1.1 µM | [33] 0.391 µM | [58] 0.237 µM | [59] 0.249 µM | [34] 0.364 µM | [60] 0.207 µM
0.468 µM: [47]

OCC(O)COc1c(Cl)ccc(Cl)c1Cl (stereo not given)
inactive: [35] > 100 µM | [1] > 100 µM | [36] > 100 µM | [37] > 100 µM | [38] > 100 µM | [2] > 100 µM | [3] > 100 µM | [4] > 100 µM | [39] > 100 µM | [5] > 100 µM | [6] > 100 µM | [8] > 100 µM | [9] > 100 µM | [40] > 100 µM | [10] > 100 µM | [41] > 100 µM | [12] > 100 µM | [42] > 100 µM | [14] > 100 µM | [15] > 100 µM | [16] > 100 µM | [17] > 100 µM | [18] > 100 µM | [43] > 100 µM | [44] > 100 µM | [19] > 100 µM | [45] > 100 µM | [20] > 100 µM | [21] > 100 µM | [46] > 100 µM | [48] > 100 µM | [22] > 100 µM | [23] > 100 µM | [49] > 100 µM | [24] > 100 µM | [25] > 100 µM | [26] > 100 µM | [27] > 100 µM | [50] > 100 µM | [28] > 100 µM | [29] > 100 µM | [51] > 100 µM | [52] > 100 µM | [53] > 100 µM | [54] > 100 µM | [55] > 100 µM | [30] > 100 µM | [31] > 100 µM | [56] > 100 µM | [57] > 100 µM | [32] > 100 µM | [33] > 100 µM | [58] > 100 µM | [59] > 100 µM | [34] > 100 µM | [60] > 100 µM
> 100 µM: [47]

CCCCCC(=O)Nc1nc(O)c2[nH]cnc2n1
> 100 µM: [47]
inactive: [35] > 100 µM | [1] > 100 µM | [36] > 100 µM | [37] > 100 µM | [38] > 100 µM | [2] > 100 µM | [3] > 100 µM | [4] > 100 µM | [39] > 100 µM | [5] > 100 µM | [6] > 100 µM | [8] > 100 µM | [9] > 100 µM | [40] > 100 µM | [10] > 100 µM | [41] > 100 µM | [12] > 100 µM | [13] > 100 µM | [42] > 100 µM | [14] > 100 µM | [15] > 100 µM | [16] > 100 µM | [17] > 100 µM | [18] > 100 µM | [43] > 100 µM | [44] > 100 µM | [19] > 100 µM | [45] > 100 µM | [20] > 100 µM | [21] > 100 µM | [46] > 100 µM | [48] > 100 µM | [22] > 100 µM | [23] > 100 µM | [49] > 100 µM | [24] > 100 µM | [25] 52.4 µM | [27] > 100 µM | [50] > 100 µM | [28] > 100 µM | [29] > 100 µM | [51] > 100 µM | [52] > 100 µM | [53] > 100 µM | [54] > 100 µM | [55] > 100 µM | [30] > 100 µM | [31] > 100 µM | [56] > 100 µM | [57] > 100 µM | [32] > 100 µM | [33] > 100 µM | [58] > 100 µM | [59] > 100 µM | [34] > 100 µM

Nc1ccc(C(=O)NN2C(=O)C(Cl)C2c2cc(Br)cc(Br)c2O)cc1 (stereo not given)
3.78 µM: [47]
inactive: [35] 4.62 µM | [1] 13.3 µM | [36] 32.2 µM | [37] 10.3 µM | [38] 3.66 µM | [2] 16.7 µM | [3] 8.3 µM | [4] 12.8 µM | [39] 3.34 µM | [5] 20.1 µM | [6] 3.4 µM | [8] 5.82 µM | [9] 4.22 µM | [40] 16.8 µM | [10] 14.1 µM | [41] 10.6 µM | [12] 12.4 µM | [13] > 100 µM | [42] 5.74 µM | [14] 24.3 µM | [15] 2.43 µM | [16] 34.9 µM | [17] 4.44 µM | [18] 11.9 µM | [43] 48.1 µM | [44] 16.5 µM | [19] 14.7 µM | [45] 3.98 µM | [20] 12.8 µM | [21] 63.8 µM | [48] 13.3 µM | [22] 6.4 µM | [23] 5.53 µM | [49] 13.3 µM | [24] 33.3 µM | [25] 6.75 µM | [26] 22.9 µM | [27] 4.89 µM | [50] 40.2 µM | [28] 17.3 µM | [29] 6.79 µM | [52] 11.1 µM | [53] 10.3 µM | [55] 18 µM | [30] 1.31 µM | [31] 3.56 µM | [56] 11.2 µM | [57] 12.1 µM | [32] 22.8 µM | [33] 14.3 µM | [58] 24.2 µM | [59] 34.1 µM | [34] 7.67 µM | [60] 8.85 µM
